Source: ChEMBL document CHEMBL5537113, “Discovery of 1,2-diaryl-3-oxopyrazolidin-4-carboxamides as a new class of MurA enzyme inhibitors and characterization of their antibacterial activity” (Eur J Med Chem, 2023)

Tests used:
Clostridioides difficile [1] = experiment: Bactericidal activity against Clostridioides difficile NR-49284 assessed as reduction in microbial growth by broth microdilution method; format: functional
Staphylococcus aureus [2] = experiment: Antibacterial activity against methicillin resistant Staphylococcus aureus NRS119 assessed as reduction in microbial growth by CLSI based broth microdilution method; format: functional
Clostridioides difficile [3] = experiment: Antibacterial activity against Clostridioides difficile NR-32904 assessed as reduction in microbial growth incubated for 48 hrs by broth microdilution method; format: functional
Clostridioides difficile [4] = experiment: Selectivity ratio of MBC for antibacterial activity against Clostridioides difficile NR-49284 to MIC for antibacterial activity against Clostridioides difficile NR-49284; format: functional
Clostridioides difficile [5] = experiment: Selectivity ratio of MBC for antibacterial activity against Clostridioides difficile ATCC BAA1870 to MIC for antibacterial activity against Clostridioides difficile ATCC BAA1870; format: functional
Clostridioides difficile [6] = experiment: Antibacterial activity against Clostridioides difficile NR-49287 assessed as reduction in microbial growth incubated for 48 hrs by broth microdilution method; format: functional
Clostridioides difficile [7] = experiment: Antibacterial activity against Clostridioides difficile NR-13427 assessed as reduction in microbial growth incubated for 48 hrs by broth microdilution method; format: functional
[8] = Stability of compound in LB broth medium at 10 uM incubated for 24 hrs at 37 degC by UHPLC-MS/MS analysis; format: physicochemical
[9] = system: Bifidobacterium angulatum; experiment: Antibacterial activity against Bifidobacterium angulatum HM 1189 assessed as reduction in microbial growth incubated for 48 hrs by broth microdilution method; format: functional
Clostridioides difficile [10] = experiment: Selectivity ratio of MBC for antibacterial activity against Clostridioides difficile ATCC 43255 to MIC for antibacterial activity against Clostridioides difficile […]; format: functional
Lactobacillus gasseri [11] = experiment: Antibacterial activity against Lactobacillus gasseri HM 407 assessed as reduction in microbial growth incubated for 48 hrs by broth microdilution method; format: functional
Clostridioides difficile [12] = experiment: Bactericidal activity against Clostridioides difficile NR-32895 assessed as reduction in microbial growth by broth microdilution method; format: functional
Lactobacillus gasseri [13] = experiment: Antibacterial activity against Lactobacillus gasseri HM 403 assessed as reduction in microbial growth incubated for 48 hrs by broth microdilution method; format: functional
Staphylococcus aureus [14] = experiment: Antibacterial activity against methicillin resistant Staphylococcus aureus USA300 assessed as reduction in microbial growth by CLSI based broth microdilution method; format: functional
Lactobacillus crispatus [15] = experiment: Antibacterial activity against Lactobacillus crispatus HM 103 assessed as reduction in microbial growth incubated for 48 hrs by broth microdilution method; format: functional
Staphylococcus aureus [16] = experiment: Antibacterial activity against Staphylococcus aureus Newman D2C NCTC 10833 assessed as reduction in microbial growth incubated for 16 hrs by serial dilution method; format: functional
Clostridioides difficile [17] = experiment: Antibacterial activity against Clostridioides difficile NR-49285 assessed as reduction in microbial growth incubated for 48 hrs by broth microdilution method; format: functional
Lactobacillus crispatus [18] = experiment: Antibacterial activity against Lactobacillus crispatus HM 420 assessed as reduction in microbial growth incubated for 48 hrs by broth microdilution method; format: functional
Escherichia coli = experiment: Antibacterial activity against Escherichia coli harboring tolC deletion mutant assessed as reduction in microbial growth incubated for 16 hrs by serial dilution method; format: functional
Clostridioides difficile [19] = experiment: Bactericidal activity against Clostridioides difficile NR-32904 assessed as reduction in microbial growth by broth microdilution method; format: functional
Clostridioides difficile [20] = experiment: Antibacterial activity against Clostridioides difficile NR-49282 assessed as reduction in microbial growth incubated for 48 hrs by broth microdilution method; format: functional
Clostridioides difficile [21] = experiment: Selectivity ratio of MBC for antibacterial activity against Clostridioides difficile NR-32904 to MIC for antibacterial activity against Clostridioides difficile NR-32904; format: functional
Staphylococcus aureus [22] = experiment: Antibacterial activity against methicillin sensitive Staphylococcus aureus NRS107 assessed as reduction in microbial growth by CLSI based broth microdilution method; format: functional
Clostridioides difficile [23] = experiment: Antibacterial activity against Clostridioides difficile NR-49291 assessed as reduction in microbial growth incubated for 48 hrs by broth microdilution method; format: functional
Bacteroides fragilis [24] = experiment: Antibacterial activity against Bacteroides fragilis HM 719 assessed as reduction in microbial growth incubated for 48 hrs by broth microdilution method; format: functional
Clostridioides difficile [25] = experiment: Antibacterial activity against Clostridioides difficile NR-32889 assessed as reduction in microbial growth incubated for 48 hrs by broth microdilution method; format: functional
Clostridioides difficile [26] = experiment: Antibacterial activity against Clostridioides difficile NR-13436 assessed as reduction in microbial growth incubated for 48 hrs by broth microdilution method; format: functional
Bifidobacterium longum = experiment: Antibacterial activity against Bifidobacterium longum HM 846 assessed as reduction in microbial growth incubated for 48 hrs by broth microdilution method; format: functional
[27] = Stability of compound in Staphylococcus aureus Newman cell lysate at 10 uM incubated for 24 hrs at 37 degC by UHPLC-MS/MS analysis; format: ADME, subcellular
Bacteroides fragilis [28] = experiment: Antibacterial activity against Bacteroides fragilis HM 709 assessed as reduction in microbial growth incubated for 48 hrs by broth microdilution method; format: functional
Clostridioides difficile [29] = experiment: Antibacterial activity against Clostridioides difficile ATCC 43255 assessed as reduction in microbial growth incubated for 48 hrs by broth microdilution method; format: functional
Clostridioides difficile [30] = experiment: Antibacterial activity against Clostridioides difficile NR-49278 assessed as reduction in microbial growth incubated for 48 hrs by broth microdilution method; format: functional
Clostridioides difficile [31] = experiment: Antibacterial activity against Clostridioides difficile NR-49279 assessed as reduction in microbial growth incubated for 48 hrs by broth microdilution method; format: functional
Clostridioides difficile [32] = experiment: Antibacterial activity against Clostridioides difficile NR-49284 assessed as reduction in microbial growth incubated for 48 hrs by broth microdilution method; format: functional
Clostridioides difficile [33] = experiment: Bactericidal activity against Clostridioides difficile ATCC BAA1870 assessed as reduction in microbial growth by broth microdilution method; format: functional
Clostridioides difficile [34] = experiment: Antibacterial activity against Clostridioides difficile NR-32903 assessed as reduction in microbial growth incubated for 48 hrs by broth microdilution method; format: functional
Clostridioides difficile [35] = experiment: Selectivity ratio of MBC for antibacterial activity against Clostridioides difficile NR-49278 to MIC for antibacterial activity against Clostridioides difficile NR-49278; format: functional
Bacteroides fragilis [36] = experiment: Antibacterial activity against Bacteroides fragilis HM 718 assessed as reduction in microbial growth incubated for 48 hrs by broth microdilution method; format: functional
Clostridioides difficile [37] = experiment: Antibacterial activity against Clostridioides difficile NR-49286 assessed as reduction in microbial growth incubated for 48 hrs by broth microdilution method; format: functional
Bacteroides fragilis [38] = experiment: Antibacterial activity against Bacteroides fragilis HM 20 assessed as reduction in microbial growth incubated for 48 hrs by broth microdilution method; format: functional
Staphylococcus aureus [39] = experiment: Antibacterial activity against vancomycin resistant Staphylococcus aureus 10 assessed as reduction in microbial growth by CLSI based broth microdilution method; format: functional
Clostridioides difficile [40] = experiment: Antibacterial activity against Clostridioides difficile NR-49288 assessed as reduction in microbial growth incubated for 48 hrs by broth microdilution method; format: functional
Bifidobacterium breve = experiment: Antibacterial activity against Bifidobacterium breve HM 412 assessed as reduction in microbial growth incubated for 48 hrs by broth microdilution method; format: functional
Clostridioides difficile [41] = experiment: Bactericidal activity against Clostridioides difficile ATCC 43255 assessed as reduction in microbial growth by broth microdilution method; format: functional
Clostridioides difficile [42] = experiment: Antibacterial activity against Clostridioides difficile NR-49294 assessed as reduction in microbial growth incubated for 48 hrs by broth microdilution method; format: functional

SMILES: O=C(Nc1ncc([N+](=O)[O-])s1)C1CN(c2ccc(Cl)cc2)N(c2ccc(Cl)cc2)C1=O (stereo not given)
- MBC (Clostridioides difficile [1]): 0.5 µg/mL
- MIC (Staphylococcus aureus [2]): 64 µg/mL
- MIC (Clostridioides difficile [3]): 0.5 µg/mL
- Ratio (Clostridioides difficile [4]): 1
- Ratio (Clostridioides difficile [5]): 1
- MIC (Clostridioides difficile [6]): 0.5 µg/mL
- MIC (Clostridioides difficile [7]): 0.5 µg/mL
- Stability [8]: Stable
- MIC [9]: > 64 µg/mL
- Ratio (Clostridioides difficile [10]): 1
- MIC (Lactobacillus gasseri [11]): > 64 µg/mL
- MBC (Clostridioides difficile [12]): 1 µg/mL
- MIC (Lactobacillus gasseri [13]): > 64 µg/mL
- MIC (Staphylococcus aureus [14]): 32 µg/mL
- MIC (Lactobacillus crispatus [15]): > 64 µg/mL
- MIC (Staphylococcus aureus [16]): 10 µM
- MIC (Clostridioides difficile [17]): 1 µg/mL
- MIC (Lactobacillus crispatus [18]): > 64 µg/mL
- MIC (Escherichia coli): > 40 µM
- MBC (Clostridioides difficile [19]): 1 µg/mL
- MIC (Clostridioides difficile [20]): 0.5 µg/mL
- Ratio (Clostridioides difficile [21]): 1
- MIC (Staphylococcus aureus [22]): 64 µg/mL
- MIC (Clostridioides difficile [23]): 1 µg/mL
- MIC (Bacteroides fragilis [24]): 4 µg/mL
- MIC (Clostridioides difficile [25]): 0.25 µg/mL
- MIC (Clostridioides difficile [26]): 1 µg/mL
- MIC (Bifidobacterium longum): 32 µg/mL
- Stability [27]: Stable
- MIC (Bacteroides fragilis [28]): 4 µg/mL
- MIC (Clostridioides difficile [29]): 0.25 µg/mL
- MIC (Clostridioides difficile [30]): 0.5 µg/mL
- MIC (Clostridioides difficile [31]): 0.5 µg/mL
- MIC (Clostridioides difficile [32]): 0.5 µg/mL
- MBC (Clostridioides difficile [33]): 0.5 µg/mL
- MIC (Clostridioides difficile [34]): 0.5 µg/mL
- Ratio (Clostridioides difficile [35]): 1
- MIC (Bacteroides fragilis [36]): 8 µg/mL
- MIC (Clostridioides difficile [37]): 0.5 µg/mL
- MIC (Bacteroides fragilis [38]): 8 µg/mL
- MIC (Staphylococcus aureus [39]): > 64 µg/mL
- MIC (Clostridioides difficile [40]): 0.25 µg/mL
- MIC (Bifidobacterium breve): > 64 µg/mL
- MBC (Clostridioides difficile [41]): 0.5 µg/mL
- MIC (Clostridioides difficile [42]): 0.5 µg/mL

SMILES: O=C(Nc1ncc([N+](=O)[O-])s1)C1CN(c2cccc(Cl)c2)N(c2cccc(Cl)c2)C1=O (stereo not given)
- MBC (Clostridioides difficile [1]): 0.5 µg/mL
- MIC (Staphylococcus aureus [2]): 1 µg/mL
- MIC (Clostridioides difficile [3]): 0.5 µg/mL
- Ratio (Clostridioides difficile [4]): 1
- Ratio (Clostridioides difficile [5]): 1
- MIC (Clostridioides difficile [6]): 0.5 µg/mL
- MIC (Clostridioides difficile [7]): 0.5 µg/mL
- Stability [8]: Stable
- MIC [9]: 32 µg/mL
- Ratio (Clostridioides difficile [10]): 1
- MIC (Lactobacillus gasseri [11]): > 64 µg/mL
- MBC (Clostridioides difficile [12]): 1 µg/mL
- MIC (Lactobacillus gasseri [13]): > 64 µg/mL
- MIC (Staphylococcus aureus [14]): 4 µg/mL
- MIC (Lactobacillus crispatus [15]): > 64 µg/mL
- MIC (Staphylococcus aureus [16]): 10 µM
- MIC (Clostridioides difficile [17]): 0.5 µg/mL
- MIC (Lactobacillus crispatus [18]): > 64 µg/mL
- MIC (Escherichia coli): > 40 µM
- MBC (Clostridioides difficile [19]): 1 µg/mL
- MIC (Clostridioides difficile [20]): 0.5 µg/mL
- Ratio (Clostridioides difficile [21]): 1
- MIC (Staphylococcus aureus [22]): 2 µg/mL
- MIC (Clostridioides difficile [23]): 1 µg/mL
- MIC (Bacteroides fragilis [24]): 8 µg/mL
- MIC (Clostridioides difficile [25]): 0.5 µg/mL
- MIC (Clostridioides difficile [26]): 0.5 µg/mL
- MIC (Bifidobacterium longum): 16 µg/mL
- Stability [27]: Stable
- MIC (Bacteroides fragilis [28]): 4 µg/mL
- MIC (Clostridioides difficile [29]): 0.125 µg/mL
- MIC (Clostridioides difficile [30]): 0.5 µg/mL
- MIC (Clostridioides difficile [31]): 0.25 µg/mL
- MIC (Clostridioides difficile [32]): 0.5 µg/mL
- MBC (Clostridioides difficile [33]): 0.25 µg/mL
- MIC (Clostridioides difficile [34]): 0.5 µg/mL
- Ratio (Clostridioides difficile [35]): 1
- MIC (Bacteroides fragilis [36]): 8 µg/mL
- MIC (Clostridioides difficile [37]): 0.5 µg/mL
- MIC (Bacteroides fragilis [38]): 4 µg/mL
- MIC (Staphylococcus aureus [39]): 4 µg/mL
- MIC (Clostridioides difficile [40]): 0.25 µg/mL
- MIC (Bifidobacterium breve): 64 µg/mL
- MBC (Clostridioides difficile [41]): 0.25 µg/mL
- MIC (Clostridioides difficile [42]): 0.5 µg/mL
